Reference: ChEMBL document CHEMBL1201862, “PubChem BioAssay data set” (2004)
Where a name gives a salt, the structure may show the parent alone. Activity calls are given as the source filed them.

Legend:
[1] = test system: A-375; experiment: MITF: Counter assay: A375 proliferation Measured in Cell-Based System Using Plate Reader - 2084-03_Inhibitor_Dose_DryPowder_Activity. [Related pubchem assays (depositor defined):AID488944]; type: functional; settings: Homo sapiens
[2] = test system: A-375; experiment: proliferation inhibition in MITF-low A375 cells – cell-based, cherry-pick samples, set 2, counter-screen for MITF modulator project, dose response (AID 540335); type: functional; settings: Homo sapiens
[3] = molecular target: DNA dC->dU-editing enzyme APOBEC-3G (Homo sapiens, UniProt Q9HC16); type: functional;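 also: Dose-response counterscreen measuring inhibition of APOBEC3G DNA deaminase activity, run while confirming APOBEC3A inhibitors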
Chain of DNA dC->dU-editing enzyme APOBEC-3G (Q9HC16 whole entry): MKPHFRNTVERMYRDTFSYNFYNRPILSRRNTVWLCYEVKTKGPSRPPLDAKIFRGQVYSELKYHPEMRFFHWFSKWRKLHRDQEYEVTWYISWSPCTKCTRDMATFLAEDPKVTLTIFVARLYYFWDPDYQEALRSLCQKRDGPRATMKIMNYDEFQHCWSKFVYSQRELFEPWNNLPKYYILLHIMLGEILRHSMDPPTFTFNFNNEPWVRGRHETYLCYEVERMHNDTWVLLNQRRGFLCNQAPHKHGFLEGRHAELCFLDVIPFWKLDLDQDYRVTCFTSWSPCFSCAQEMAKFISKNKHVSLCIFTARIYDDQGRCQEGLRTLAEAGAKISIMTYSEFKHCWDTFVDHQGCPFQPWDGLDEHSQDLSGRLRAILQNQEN

[4] = molecular target: T1, Microphthalmia-associated transcription factor (Homo sapiens, UniProt O75030); experiment: reducers of TRPM1 reporter luminescence, concentration series – cell-based, SK-MEL-5, cherry-picked, set 3, MITF inhibitor project, dose response (AID 493073); type: functional;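 also: SK-MEL-5 melanoma cells with luciferase driven by the MITF target TRPM1 promoter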
T1 sequence (O75030 whole entry): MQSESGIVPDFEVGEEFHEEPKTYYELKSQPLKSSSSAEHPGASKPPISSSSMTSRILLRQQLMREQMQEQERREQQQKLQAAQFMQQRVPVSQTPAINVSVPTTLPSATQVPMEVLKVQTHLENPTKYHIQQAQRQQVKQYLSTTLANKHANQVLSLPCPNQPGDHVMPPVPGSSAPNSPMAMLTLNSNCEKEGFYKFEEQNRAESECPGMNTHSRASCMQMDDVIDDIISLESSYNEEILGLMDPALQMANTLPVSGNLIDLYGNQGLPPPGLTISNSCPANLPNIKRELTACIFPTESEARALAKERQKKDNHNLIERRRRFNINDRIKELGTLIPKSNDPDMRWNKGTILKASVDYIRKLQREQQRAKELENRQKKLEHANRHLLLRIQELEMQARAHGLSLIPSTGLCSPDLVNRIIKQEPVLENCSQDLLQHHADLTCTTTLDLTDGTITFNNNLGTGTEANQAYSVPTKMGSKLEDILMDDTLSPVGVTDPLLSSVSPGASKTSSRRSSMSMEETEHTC

[5] = molecular target: DNA dC->dU-editing enzyme APOBEC-3A (Homo sapiens, UniProt P31941); experiment: Dose Response confirmation of small molecule APOBEC3A DNA Deaminase Inhibitors via a fluorescence-based single-stranded DNA deaminase assay. [Related pubchem assays (depositor defined):AID493011, AID493024]; type: functional
Chain of DNA dC->dU-editing enzyme APOBEC-3A (P31941 whole entry): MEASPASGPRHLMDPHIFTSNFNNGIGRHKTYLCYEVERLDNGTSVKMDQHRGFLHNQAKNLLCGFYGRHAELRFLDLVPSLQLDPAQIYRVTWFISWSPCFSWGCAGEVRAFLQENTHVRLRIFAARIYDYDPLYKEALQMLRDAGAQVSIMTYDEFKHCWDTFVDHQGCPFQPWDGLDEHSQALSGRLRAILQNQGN

[6] = molecular target: T2, Ubiquitin-conjugating enzyme E2 N (Homo sapiens, UniProt P61088); type: functional;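 also: Dose-response confirmation in a TR-FRET assay detecting UBC13-driven polyubiquitin chain formation, inhibition measured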
T2 sequence (P61088 whole entry): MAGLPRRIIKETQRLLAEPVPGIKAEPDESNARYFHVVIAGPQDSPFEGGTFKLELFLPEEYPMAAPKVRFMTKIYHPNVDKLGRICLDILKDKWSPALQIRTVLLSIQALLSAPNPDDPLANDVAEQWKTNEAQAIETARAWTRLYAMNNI

[7] = molecular target: Voltage-gated inwardly rectifying potassium channel KCNH2 (Homo sapiens, UniProt Q12809); settings: Potency;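 also: confirmatory quantitative high-throughput screen measuring inhibition of hERG channel activity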
Chain of Voltage-gated inwardly rectifying potassium channel KCNH2 (Q12809 whole entry): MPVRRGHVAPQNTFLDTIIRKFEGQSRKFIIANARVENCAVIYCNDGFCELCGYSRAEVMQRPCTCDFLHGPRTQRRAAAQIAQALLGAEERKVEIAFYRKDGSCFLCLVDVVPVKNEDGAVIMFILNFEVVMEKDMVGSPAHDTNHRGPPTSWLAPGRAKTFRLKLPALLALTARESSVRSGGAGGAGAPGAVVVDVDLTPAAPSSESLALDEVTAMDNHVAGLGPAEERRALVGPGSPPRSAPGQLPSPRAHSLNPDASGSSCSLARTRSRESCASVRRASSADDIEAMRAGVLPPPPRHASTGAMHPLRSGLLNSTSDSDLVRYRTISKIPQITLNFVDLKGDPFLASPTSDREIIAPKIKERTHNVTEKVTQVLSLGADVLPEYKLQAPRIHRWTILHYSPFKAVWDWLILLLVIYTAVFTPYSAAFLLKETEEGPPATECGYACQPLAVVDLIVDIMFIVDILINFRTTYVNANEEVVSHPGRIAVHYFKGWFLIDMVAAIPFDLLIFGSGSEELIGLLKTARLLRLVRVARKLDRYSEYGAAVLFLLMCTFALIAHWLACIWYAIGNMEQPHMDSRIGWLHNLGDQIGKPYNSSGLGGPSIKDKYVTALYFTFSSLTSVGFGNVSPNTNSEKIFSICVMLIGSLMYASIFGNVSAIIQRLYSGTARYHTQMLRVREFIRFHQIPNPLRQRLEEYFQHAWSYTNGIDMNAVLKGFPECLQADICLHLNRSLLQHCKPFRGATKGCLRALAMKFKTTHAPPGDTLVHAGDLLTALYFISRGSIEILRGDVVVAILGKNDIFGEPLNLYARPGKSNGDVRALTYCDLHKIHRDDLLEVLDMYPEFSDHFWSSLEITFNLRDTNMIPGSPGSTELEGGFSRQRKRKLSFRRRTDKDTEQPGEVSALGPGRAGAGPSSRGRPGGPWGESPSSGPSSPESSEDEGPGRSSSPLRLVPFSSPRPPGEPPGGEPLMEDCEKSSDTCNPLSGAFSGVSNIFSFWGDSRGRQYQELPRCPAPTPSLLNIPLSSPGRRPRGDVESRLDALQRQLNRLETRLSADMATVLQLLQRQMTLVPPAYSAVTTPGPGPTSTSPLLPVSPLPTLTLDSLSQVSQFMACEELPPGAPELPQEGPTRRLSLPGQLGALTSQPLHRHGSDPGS

[8] = molecular target: T3, Nuclear receptor subfamily 0 group B member 1 (Homo sapiens, UniProt P51843); experiment: Luminescence-based cell-based high throughput dose response assay for inhibitors of the orphan nuclear receptor subfamily 0, group B, member 1 (DAX1; NR0B1). [Related pubchem assays (depositor defined):AID504766, AID504790]; type: functional
T3 sequence (P51843 whole entry): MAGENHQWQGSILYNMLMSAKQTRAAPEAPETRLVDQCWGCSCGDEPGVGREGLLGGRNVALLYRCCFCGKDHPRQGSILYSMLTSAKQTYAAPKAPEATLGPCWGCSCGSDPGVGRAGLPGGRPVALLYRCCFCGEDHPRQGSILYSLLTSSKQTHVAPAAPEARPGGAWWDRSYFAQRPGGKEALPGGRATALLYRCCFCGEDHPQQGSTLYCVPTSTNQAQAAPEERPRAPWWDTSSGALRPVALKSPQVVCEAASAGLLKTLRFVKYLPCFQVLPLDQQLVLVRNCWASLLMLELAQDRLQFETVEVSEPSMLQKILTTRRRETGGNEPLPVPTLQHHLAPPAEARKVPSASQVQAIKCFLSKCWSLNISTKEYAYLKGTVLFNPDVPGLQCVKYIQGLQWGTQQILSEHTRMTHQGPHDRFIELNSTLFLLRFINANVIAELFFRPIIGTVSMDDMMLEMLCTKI

[9] = test system: HEK293; experiment: cells; type: functional, cell-based; settings: Homo sapiens
[10] = test system: INS1; experiment: INS-1E survival protection against cytokine death – cell-based, luminescence, retest, dose response (AID 449756); type: functional; settings: Rattus norvegicus;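 also: cell death triggered by IL-1 beta plus TNF-alpha plus IFN-gamma mixture; protective hits raise ATP signal compared with cytokine alone wells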
[11] = molecular target: Cytochrome P450 2C9 (Homo sapiens, UniProt P11712)
Chain of Cytochrome P450 2C9 (P11712 whole entry, the tested form may be a part): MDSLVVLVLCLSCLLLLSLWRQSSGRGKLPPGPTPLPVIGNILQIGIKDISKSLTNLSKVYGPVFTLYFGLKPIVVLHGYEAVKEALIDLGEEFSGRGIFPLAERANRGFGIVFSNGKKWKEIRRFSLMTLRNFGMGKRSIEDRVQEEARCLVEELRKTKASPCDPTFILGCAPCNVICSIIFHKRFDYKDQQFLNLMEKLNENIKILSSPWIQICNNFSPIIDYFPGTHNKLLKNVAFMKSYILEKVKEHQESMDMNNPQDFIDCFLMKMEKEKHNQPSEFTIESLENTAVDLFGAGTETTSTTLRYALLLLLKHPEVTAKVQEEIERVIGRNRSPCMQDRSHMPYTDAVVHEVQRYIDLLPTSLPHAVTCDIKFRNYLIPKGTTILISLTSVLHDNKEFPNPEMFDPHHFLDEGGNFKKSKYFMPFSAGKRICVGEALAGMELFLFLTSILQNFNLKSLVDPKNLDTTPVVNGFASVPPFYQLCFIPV

[12] = molecular target: T4, Polyadenylate-binding protein 1 (Homo sapiens, UniProt P11940); experiment: MLLE domain peptide-binding blockers, IC50 – biochemical, fluorescence polarization, FITC-PAM2 peptide, dose response (AID 602259); type: functional; settings: read-out: IC50_Mean
T4 sequence (P11940 whole entry, the tested form may be a part): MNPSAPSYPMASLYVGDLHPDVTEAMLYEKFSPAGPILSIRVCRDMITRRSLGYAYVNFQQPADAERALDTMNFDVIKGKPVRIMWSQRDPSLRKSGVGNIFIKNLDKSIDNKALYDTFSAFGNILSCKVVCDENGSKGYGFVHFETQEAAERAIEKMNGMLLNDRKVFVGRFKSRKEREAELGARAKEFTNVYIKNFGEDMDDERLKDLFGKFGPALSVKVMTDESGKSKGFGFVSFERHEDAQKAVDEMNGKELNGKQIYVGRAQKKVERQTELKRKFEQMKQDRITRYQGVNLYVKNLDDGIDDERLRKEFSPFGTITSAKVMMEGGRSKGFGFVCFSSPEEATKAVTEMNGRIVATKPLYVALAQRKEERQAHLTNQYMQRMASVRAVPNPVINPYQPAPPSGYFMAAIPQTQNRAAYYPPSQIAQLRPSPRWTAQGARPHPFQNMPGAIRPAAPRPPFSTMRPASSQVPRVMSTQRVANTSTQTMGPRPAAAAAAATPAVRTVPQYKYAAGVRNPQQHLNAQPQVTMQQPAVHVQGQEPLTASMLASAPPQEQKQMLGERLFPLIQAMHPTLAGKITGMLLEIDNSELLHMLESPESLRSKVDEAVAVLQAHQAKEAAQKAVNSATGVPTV

[13] = molecular target: T4, Polyadenylate-binding protein 1; experiment: MLLE binding blockers, Cy5 peptide tracer – biochemical, fluorescence polarization, Cy5-PAM2 peptide, secondary, miRNA deadenylation inhibitor project, dose response (AID 602260); type: functional; settings: read-out: IC50_Mean
[14] = molecular target: Beta-galactosidase (Escherichia coli, UniProt Q8VNN2); experiment: detection-enzyme interference by beta-gal modulators – biochemical, E. coli enzyme, set 3, artefact control for CCR6 antagonist project, dose response (AID 504712); type: functional
Chain of Beta-galactosidase (Q8VNN2 whole entry): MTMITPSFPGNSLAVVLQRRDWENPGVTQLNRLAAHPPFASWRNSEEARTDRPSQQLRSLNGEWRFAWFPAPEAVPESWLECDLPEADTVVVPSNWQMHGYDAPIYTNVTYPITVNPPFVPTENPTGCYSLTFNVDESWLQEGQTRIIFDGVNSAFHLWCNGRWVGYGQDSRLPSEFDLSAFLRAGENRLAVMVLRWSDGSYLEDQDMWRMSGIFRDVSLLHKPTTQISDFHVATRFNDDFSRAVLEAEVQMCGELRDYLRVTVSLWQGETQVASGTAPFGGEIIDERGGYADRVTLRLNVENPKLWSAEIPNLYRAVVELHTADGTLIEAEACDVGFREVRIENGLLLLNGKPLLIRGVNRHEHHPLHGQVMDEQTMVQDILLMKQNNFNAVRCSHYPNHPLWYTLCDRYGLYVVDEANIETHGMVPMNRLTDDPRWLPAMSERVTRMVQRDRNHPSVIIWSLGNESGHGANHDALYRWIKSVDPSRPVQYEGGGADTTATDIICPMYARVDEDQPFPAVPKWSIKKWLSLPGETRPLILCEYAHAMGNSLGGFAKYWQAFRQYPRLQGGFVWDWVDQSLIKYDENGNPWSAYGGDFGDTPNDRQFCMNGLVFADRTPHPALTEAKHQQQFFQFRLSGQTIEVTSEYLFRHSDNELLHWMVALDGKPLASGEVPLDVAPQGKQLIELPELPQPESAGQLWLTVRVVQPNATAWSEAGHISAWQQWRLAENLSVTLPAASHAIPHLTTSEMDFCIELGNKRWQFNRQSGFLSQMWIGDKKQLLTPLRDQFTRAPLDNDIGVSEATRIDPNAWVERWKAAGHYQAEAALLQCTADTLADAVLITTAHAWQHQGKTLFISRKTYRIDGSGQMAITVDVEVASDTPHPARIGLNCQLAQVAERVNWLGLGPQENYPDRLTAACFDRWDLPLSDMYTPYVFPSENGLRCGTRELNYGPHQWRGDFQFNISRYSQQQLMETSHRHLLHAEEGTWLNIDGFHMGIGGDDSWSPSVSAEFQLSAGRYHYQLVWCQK

[15] = cells; type: functional, cell-based
[16] = Luminescence Cell-Based Dose Confirmation HTS to Identify Activators of 5'UTR Stem-Loop Driven Alpha-Synuclein mRNA Translation in H4 Neuroglioblastoma Cells. [Related pubchem assays: 1829 (Project Summary), 1814 (Primary HTS)]; type: functional
[17] = molecular target: T5, Oxysterols receptor LXR-beta (Homo sapiens, UniProt P55055); type: functional, cell-based;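 also: agonist activity at LXR measured by a cell-based luminescence readout across a dose range, run as a counterscreen for daf-12 agonists; HEK293 cells with Gal4-LXR fusion and GAL4-driven luciferase reporter; potency for activation of Gal4-LXR reporter so compounds are agonists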
T5 sequence (P55055 whole entry): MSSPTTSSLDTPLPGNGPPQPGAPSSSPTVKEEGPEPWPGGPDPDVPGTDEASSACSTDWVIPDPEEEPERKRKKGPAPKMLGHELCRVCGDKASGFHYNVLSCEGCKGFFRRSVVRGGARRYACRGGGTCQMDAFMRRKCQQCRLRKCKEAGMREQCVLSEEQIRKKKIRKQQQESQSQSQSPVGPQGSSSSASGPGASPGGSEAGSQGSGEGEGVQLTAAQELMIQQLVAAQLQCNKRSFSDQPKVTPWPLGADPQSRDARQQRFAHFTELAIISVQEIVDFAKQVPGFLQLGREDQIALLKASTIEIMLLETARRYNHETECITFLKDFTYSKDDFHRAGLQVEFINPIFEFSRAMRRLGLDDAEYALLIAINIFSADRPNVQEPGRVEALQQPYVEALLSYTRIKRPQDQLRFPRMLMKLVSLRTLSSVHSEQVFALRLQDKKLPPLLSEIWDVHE

[18] = test system: H4; experiment: Luminescence Cell-Based Dose Response HTS to Identify Activators of 5'UTR Stem-Loop Driven Prion Protein mRNA Translation in H4 Neuroglioblastoma Cells. [Related pubchem assays: 1829 (Project Summary), 1814 (Primary HTS)]; type: functional; settings: Homo sapiens
[19] = viability loss in HepG2 hepatoma cells – cell-based, ATP luminescence, cherry-pick, activator set 2, cytotoxicity control, dose response (AID 1053143); type: functional
[20] = Luminescence Cell-Based Dose Response HTS to Identify Activators of Luciferase Translation or Activity in H4 […] Cells. [Related pubchem assays: 1829 (Project Summary), 1814 (Primary HTS)]; type: functional
[21] = cells; type: functional, cell-based; remark: listed apart in the source

In the case of COC(=O)C1=C(C)N(Cc2ccccc2)C(NCCc2cccnc2)=N[C@H]1c1ccc(Br)cc1, the AC50 [1] is reported as > 11 µM (active), the AC50 [2] is reported as > 11 µM (active) and the IC50 [3] is reported as 4.68 µM (active). For the same compound, the AC50 [4] was 17.8 µM (active), the IC50 [5] was 3.04 µM (active) and the IC50 [6] was > 20 µM (inactive).

For C#CCOC(=O)C1=CCCN(C)C1 [ARECAIDINE PROPARGYL ESTER HYDROBROMIDE], the AC50 [7] was 35.5 µM (inconclusive).

In the case of COC[C@H]1OC(=O)c2coc3c2[C@@]1(C)C1=C(C3=O)C2CCC(=O)[C@@]2(C)C[C@H]1OC(C)=O (stereo partly specified), the AC50 [7] is reported as 17.8 µM (inconclusive).

In the case of COc1ccc(CC(=O)NC2CCSc3ccccc32)c(OC)c1 (stereo unspecified), the IC50 [8] is reported as > 67.6 µM (inactive) and the IC50 [9] is reported as > 67.6 µM (inactive).

With CCOC(=O)N1CCN(C(=O)COc2cc(=O)n(CC)c3ccccc23)CC1 the IC50 [8] was > 67.5 µM (inactive) and the IC50 [9] was > 67.5 µM (inactive).

In the case of CC(C)Oc1ccc(C(CCN)C2CCCCC2)cc1 (stereo unspecified), the AC50 [10] is reported as 7.47 µM (active), the AC50 [1] is reported as 17.7 µM (active) and the AC50 [4] is reported as 9.99 µM (active).

In the case of O=C1NC(=S)NC(=O)C1=Cc1cccc2cc3ccccc3cc12, the AC50 [1] is reported as > 35 µM (active), the AC50 [11] is reported as 3.16 µM (inconclusive) and the IC50 [12] is reported as > 66 µM (inactive). For the same compound, the AC50 [2] was > 35 µM (active), the AC50 [4] was 4.81 µM (active) and the IC50 [13] was > 66 µM (inactive). For the same compound, the IC50 [14] was > 66.6 µM (inactive).

With O=C(Nc1ccccc1O)c1ccc(NS(=O)(=O)c2cccc3cccnc23)cc1 the EC50 [15] was 8.05 µM (active), the EC50 [16] was 11.2 µM (active) and the IC50 [8] was > 67.5 µM (inactive). The EC50 [17] was > 67.5 µM (inactive), the IC50 [9] was 0.695 µM (active) and the EC50 [18] was 34 µM (active). The AC50 [19] was 9.01 µM (active), the EC50 [20] was 10.7 µM (active) and the EC50 [21] was > 350 µM (not active).
